Columns and labels:
h-GABA-A α5β3γ2 [1] = molecular target: T1, h-GABA-A α5β3γ2 (Homo sapiens (Human), UniProt P18507+P31644); assay: [3H]flumazenil competition binding assay, membranes of HEK293 cells expressing human GABAA receptors; settings: displacement of [3H]flumazenil 0.5 nM, HEK293 cells expressing human receptors, mean of two determinations; read-out: Ki h-GABA-A α5β3γ2
Experimental: The affinity of compounds at GABAA receptor subtypes was measured by competition for [3H]flumazenil (85 Ci/mmol; Roche) binding to HEK293 cells expressing rat (stably transfected) or human (transiently transfected) receptors of composition α1β3γ2, α2β3γ2, α3β3γ2 and α5β3γ2.
Cell pellets were suspended in Krebs-tris buffer (4.8 mM KCl, 1.2 mM CaCl2, 1.2 mM MgCl2, 120 mM NaCl, 15 mM Tris; pH 7.5; binding assay buffer), homogenized by polytron for ca. 20 sec on ice and centrifuged for 60 min at 4° C. (50000 g; Sorvall, rotor: SM24=20000 rpm). The cell pellets were resuspended in Krebs-tris buffer and homogenized by polytron for ca. 15 sec on ice. Protein was measured (Bradford method, Bio-Rad) and aliquots of 1 mL were prepared and stored at −80° C.
Assays were incubated to equilibrium for 1 hour at 4° C. and harvested onto GF/C uni-filters (Packard) by filtration using a Packard harvester and washing with ice-cold wash buffer (50 mM Tris; pH 7.5). After drying, filter-retained radioactivity was detected by liquid scintillation counting. Ki values were calculated using Excel-Fit (Microsoft) and are the means of two determinations.

h-GABA-A α5β3γ2 [2] = molecular target: T1, h-GABA-A α5β3γ2; assay: Two-electrode voltage clamp electrophysiology in Xenopus oocytes expressing GABAA receptors, modulation of GABA EC20 current; type: cell-based; settings: Xenopus oocytes; for Efficacy (GABA) %: % modulation of GABA EC20 = 100*(Fold increase−1); for Fold increase h-GABA-A α5β3γ2 oocyte: GABA EC20, test compound at approx. 30 fold its Ki
Experimental: Xenopus laevis oocytes at maturation stages V-VI were used for the expression of cloned mRNA encoding GABAA receptor subunits. Oocytes ready for RNA micro-injection were bought from Ecocyte, Castrop-Rauxel, Germany and stored in modified Barth's medium (composition in mM: NaCl 88, KCl 1, NaHCO32.4, HEPES 10, MgSO4 0.82, CaNO3 0.33, CaCl2) 0.33, pH=7.5) at 20° C. until the experiment.
Oocytes were plated in 96-well plates to be used in an automated instrument (Robo-ocyte, MultiChannelSystems, Reutlingen, Germany) for microinjection and electrophysiological recordings. Approximately 50 nl of an aqueous solution containing the RNA transcripts for the subunits of the desired GABAA receptor was injected into each oocyte. RNA concentrations ranged between 0.3 and 16 ng/μl/subunit and were adjusted in pilot experiments to obtain GABA responses of a suitable size and a maximal effect of the reference modulator, Beta-CCM (β-CCM), a betacarboline negative allosteric modulator (NAM) at the GABAA receptor benzodiazepine (BZD) binding site or Midazolam, a benzodiazepine positive allosteric modulator (PAM) at the GABAA receptor benzodiazepine (BZD) binding site. The concentration of the γ2 subunit encoding RNA usually was 5-to 10-fold higher than the RNAs encoding the other subunits. Oocytes were kept in modified Barth's medium (composition in mM: NaCl 88, KCl 1, NaHCO3 4, HEPES 10, MgSO4 0.82, CaNO3 0.33, CaCl2 0.33, pH=7.5) at 20° C. until the experiment.
Electrophysiological experiments were performed on days 3 to 5 after the micro-injection of mRNA. During the experiment the oocytes were constantly superfused by a solution containing (in mM) NaCl 90, KCl 1, HEPES 5, MgCl2 1, CaCl2 1 (pH 7.4). Oocytes were impaled by two glass microelectrodes (resistance: 0.4 MΩ) which were filled with a solution containing KCl 1M+K-acetate 1.5 M and voltage-clamped to −80 mV. The recordings were performed at room temperature using the Roboocyte two-electrode voltage clamp system (Multichannelsystem). After an initial equilibration period of 1.5 min GABA was added for 1.5 min at a concentration evoking approximately 20% of a maximal current response (EC20). After another rest interval of 2.5 min GABA was again added evoking a response of similar amplitude and shape. […] Current traces were recorded at a digitization rate of 10 Hz during and shortly before and after the GABA application.
Each compound and concentration was tested on at least 3 oocytes.
For the analysis, the digitized current traces of the first and second GABA response were superimposed and, if necessary, rescaled to equal maximal amplitudes. The ratio between the two responses during the time interval of test compound application was calculated point by point. The extremum of the resulting “ratio trace” was taken as the efficacy (“Fold increase”) of the compound expressed as “% modulation of GABA EC20” (100*(Fold increase−1)).

| Ki (h-GABA-A α5β3γ2 [1]) [nM] | Efficacy (GABA) % (h-GABA-A α5β3γ2 [2]) [%] | Fold increase h-GABA-A α5β3γ2 oocyte (h-GABA-A α5β3γ2 [2]) | SMILES |
| --- | --- | --- | --- |
| 10.8 | 44 | 1.44 | Cc1ccc(-c2noc(C)c2COc2cc3c(cn2)C(=O)N(C2CCOCC2)C3)cn1 [Example 22, 6-((5-methyl-3-(6-methylpyridin-3-yl)isoxazol-4-yl)methoxy)-2-(tetrahydro-2H-pyran-4-yl)-1H-pyrrolo[3,4-c]pyridin-3(2H)-one] |
| 41.6 | 63 | 1.63 | Cc1ccc(-c2noc(C)c2COc2ccc(C(=O)N[C@H]3CCCC[C@@H]3O)nn2)cn1 [Example 24, N-((1S,2S)-2-hydroxycyclohexyl)-6-((5-methyl-3-(6-methylpyridin-3-yl)isoxazol-4-yl)methoxy)pyridazine-3-carboxamide] |
| 9.4 | 59 | 1.59 | Cc1ccc(-c2noc(C)c2COc2ccc(C(=O)N[C@@H]3CCCC[C@H]3O)nn2)cn1 [Example 25, N-((1R,2R)-2-hydroxycyclohexyl)-6-((5-methyl-3-(6-methylpyridin-3-yl)isoxazol-4-yl)methoxy)pyridazine-3-carboxamide] |
| 5.2 | 80 | 1.8 | Cc1ccc(-c2noc(C)c2COc2ccc(C(=O)NC3CC3)nn2)cn1 [Example 26, N-cyclopropyl-6-((5-methyl-3-(6-methylpyridin-3-yl)isoxazol-4-yl)methoxy)pyridazine-3-carboxamide] |
| 12.3 | 54 | 1.54 | Cc1ccc(-c2noc(C)c2COc2ccc(C(=O)N[C@@H]3CCCC[C@@H]3O)nn2)cn1 [Example 27, N-((1R,2S)-2-hydroxycyclohexyl)-6-((5-methyl-3-(6-methylpyridin-3-yl)isoxazol-4-yl)methoxy)pyridazine-3-carboxamide] |
| 8 | 52 | 1.52 | Cc1ccc(-c2noc(C)c2COc2ccc(C(=O)N[C@@H]3CCOC[C@H]3O)nn2)cn1 [Example 28, N-((3S,4R)-3-hydroxytetrahydropyran-4-yl)-6-((5-methyl-3-(6-methylpyridin-3-yl)isoxazol-4-yl)methoxy)pyridazine-3-carboxamide] |
| 8 | 81 | 1.81 | Cc1ccc(-c2noc(C)c2COc2ccc(C(=O)NCCO)nn2)cn1 [Example 29, N-(2-hydroxyethyl)-6-((5-methyl-3-(6-methylpyridin-3-yl)isoxazol-4-yl)methoxy)pyridazine-3-carboxamide] |
| 12.4 | 94 | 1.94 | Cc1ccc(-c2noc(C)c2COc2ccc(C(=O)NC3CCS(=O)(=O)CC3)nn2)cn1 [Example 30, N-(1,1-dioxothian-4-yl)-6-((5-methyl-3-(6-methylpyridin-3-yl)-1,2-oxazol-4-yl)methoxy)pyridazine-3-carboxamide] |
| 14.2 | 102 | 2.02 | Cc1ccc(-c2noc(C)c2COc2ccc(C(=O)NCC3CC3)nn2)cn1 [Example 31, N-(cyclopropylmethyl)-6-((5-methyl-3-(6-methylpyridin-3-yl)isoxazol-4-yl)methoxy)pyridazine-3-carboxamide] |
| 8.5 | 79 | 1.79 | Cc1ccc(-c2noc(C)c2COc2ccc(C(=O)NC(C)(C)CO)nn2)cn1 [Example 32] |
| 11.6 | 76 | 1.76 | Cc1ccc(-c2noc(C)c2COc2ccc(C(=O)NCCC#N)nn2)cn1 [Example 33, N-(2-cyanoethyl)-6-((5-methyl-3-(6-methylpyridin-3-yl)isoxazol-4-yl)methoxy)pyridazine-3-carboxamide] |
| 4.4 | 82 | 1.82 | Cc1ccc(-c2noc(C)c2COc2ccc(C(=O)NC3COC3)nn2)cn1 [Example 35, 6-((5-methyl-3-(6-methylpyridin-3-yl)isoxazol-4-yl)methoxy)-N-(oxetan-3-yl)pyridazine-3-carboxamide] |
| 7.6 | 73 | 1.73 | CCNC(=O)c1ccc(OCc2c(-c3ccc(C)nc3)noc2C)nn1 [Example 37, N-ethyl-6-((5-methyl-3-(6-methylpyridin-3-yl)isoxazol-4-yl)methoxy)pyridazine-3-carboxamide] |
| 7.5 | 84 | 1.84 | Cc1ccc(-c2noc(C)c2COc2ccc(C(=O)NC(C)C)nn2)cn1 [Example 38, N-isopropyl-6-((5-methyl-3-(6-methylpyridin-3-yl)isoxazol-4-yl)methoxy)pyridazine-3-carboxamide] |
| 14.6 | 89 | 1.89 | Cc1ccc(-c2noc(C)c2COc2ccc(C(=O)NCC(C)C)nn2)cn1 [Example 39, N-isobutyl-6-((5-methyl-3-(6-methylpyridin-3-yl)isoxazol-4-yl)methoxy)pyridazine-3-carboxamide] |
| 10.6 | 91 | 1.91 | Cc1ccc(-c2noc(C)c2COc2ccc(C(=O)NCC(F)(F)F)nn2)cn1 [Example 40, 6-((5-methyl-3-(6-methylpyridin-3-yl)isoxazol-4-yl)methoxy)-N-(2,2,2-trifluoroethyl)pyridazine-3-carboxamide] |
| 19.4 | 104 | 2.04 | Cc1ccc(-c2noc(C)c2COc2ccc(C(=O)NC(C)(C)C)nn2)cn1 [Example 41, N-tert-butyl-6-((5-methyl-3-(6-methylpyridin-3-yl)isoxazol-4-yl)methoxy)pyridazine-3-carboxamide] |
| 8.9 | 81 | 1.81 | Cc1ccc(-c2noc(C)c2COc2ccc(C(=O)NC3CC(F)(F)C3)nn2)cn1 [Example 42, N-(3,3-difluorocyclobutyl)-6-((5-methyl-3-(6-methylpyridin-3-yl)isoxazol-4-yl)methoxy)pyridazine-3-carboxamide] |
| 16.4 | 82 | 1.82 | Cc1ccc(-c2noc(C)c2COc2ccc(C(=O)NC3CCC(F)(F)CC3)nn2)cn1 [Example 43, N-(4,4-difluorocyclohexyl)-6-((5-methyl-3-(6-methylpyridin-3-yl)isoxazol-4-yl)methoxy)pyridazine-3-carboxamide] |
| 3.5 | 63 | 1.63 | CNC(=O)c1ccc(OCc2c(-c3ccc(C)nc3)noc2C)nn1 [Example 46, N-methyl-6-((5-methyl-3-(6-methylpyridin-3-yl)isoxazol-4-yl)methoxy)pyridazine-3-carboxamide] |
